In brackets after ≈: the same amount, converted by molar mass.
Legend:
[1] = test system: Mycobacterium vaccae (JMRC:STI:10670); assay: MIC determination; type: cell-based; settings: for MIC: Mycolicibacterium vaccae, n = 1; for Selectivity index: ratio between CC50 (HeLa) and MIC M. vaccae
Procedure: (§1) Supplementary Method 5: Biological Assays
(§2) Minimal inhibitory concentrations were determined against Mycobacterium vaccae (JMRC:STI:10670) and Mycobacterium smegmatis (JMRC:STH:00056). M. vaccae and M. smegmatis cultures were grown 48 h at 32 °C in a medium consisting of glycerol (1%), beef extract (0.5%), peptone from casein (0.5%) and sodium chloride (0.3%). Serial dilutions of the DMSO test item solutions (1 mg∙mL -1) were prepared at 100 µL scale in 96 well plates in Mueller Hinton broth starting at 200 µg∙mL -1 (highest) to cover a final concentration range of 100 to 0.05 µg∙mL -1. Each plate was equipped with a series of DMSO and ciprofloxacin dilutions as quality controls. 96 well plates were inoculated with 100 µL diluted culture (Mueller Hinton bullion) at a final concentration of 5∙10 5 and incubated at 37 °C for 42 h. Growth/no growth was visually inspected.
(§3) 2. Proliferation and cytotoxicity assay
(§4) Cells and culture conditions
(§5) The following cell lines and media were used:
(§6) Cell line Cell culture medium
(§7) Cells were grown in the appropriate cell culture medium supplemented with 10 mL/L ultraglutamine 1 […]
(§8) heat inactivated fetal bovine serum (GIBCO Life Technologies 10270-106) at 37 °C in 5% CO 2 in high density polyethylene flasks (NUNC 156340).
(§9) To decide if the compounds have an antiproliferative and/or a cytotoxic effect on human cells, cell death and retardation of cell proliferation were assessed. Under our experimental conditions, the optical density measured from the CellTiter-Blue® reagent and methylene blue assay is proportional to the […]
(§10) The test substances were dissolved in DMSO and further diluted in the cell culture medium. The adherent cells were harvested at the logarithmic growth phase after soft trypsinization using 0.25% trypsin in PBS containing 0.02% EDTA (Biochrom KG L2163). For each experiment, approximately 10,000 cells were seeded with 0.1 mL culture medium per well of the 96-well microplates (HUVEC: flat bottomed NUNC 167008, K-562: round bottomed NUNC 163320). To test the antiproliferative

[2] = test system: Mycobacterium smegmatis (JMRC:STH:00056); assay: MIC determination; type: cell-based; settings: Mycolicibacterium smegmatis; n = 1
Procedure: as §1
as §2, with “inspected. […]” for “inspected.”

Cytotoxicity assay = type: cell-based; settings: human, n = 4
Procedure: (§11) Supplementary Method 5: Biological Assays […]
as §3, §4, §5, §6, §7, §8, §9
as §10, with “To test the antiproliferative” left out
For the cytotoxicity assay, HeLa cells were preincubated for 48 hours without the test substances. To test the cytotoxic effect on HeLa, dilutions of the compounds were carried out carefully on the subconfluent monolayers of HeLa cells after the preincubation time. After incubation time, the cytolytic effect of compounds was analysed in comparison to the negative control. The 50% cytotoxic concentration (CC 50 ) was defined as the test compound concentration required for destruction of the cell monolayer by 50% compared to untreated control.
(§12) Cells were incubated with dilutions of the test substances in microplates for 72 hours at 37 °C in a humidified atmosphere and 5% CO 2. […]
(§13) cytotoxicity and the inhibition of cell proliferation. The number of viable cells was determined subsequent to staining with CellTiter-Blue® reagent or methylene blue. […]
(§14) HUVEC and HeLa cells: The adherent HUVEC and HeLa cells were fixed by glutaraldehyde (MERCK […]
(§15) gently washing, the stain was eluted by adding 0.2 mL of hydrochloric acid (0.33 M) to each well. The optical densities were measured at 660 nm (methylene blue) in SUNRISE microplate reader (TECAN).
(§16) General remarks: Signals from the methylene blue and CellTiter-Blue® reagent are proportional to the number of viable cells. A repeat determination has been conducted in all experiments, four replicates were assayed. The calculations of the different values of GI 50 and CC 50 were performed with the software

HUVEC = assay: Proliferation assay; type: cell-based; settings: Homo sapiens, 72 h, n = 4
Procedure: as §11, §3, §4, §5, §6, §7, §8, §9
as §10, with “antiproliferative […]” for “antiproliferative”
(§17) effect of test compounds on HUVEC and K-562, the cells were incubated for 72 hours in plates prepared with control and different dilutions of test substances. […]
(§18) of proliferation compared to the untreated control. […]
as §12, §13, §14, §15, §16

K-562 = assay: Proliferation assay; type: cell-based; settings: Homo sapiens, K562; 72 h, n = 4
Procedure: as §11, §3, §4, §5, §6, §7, §8, §9
as §10, with “antiproliferative […]” for “antiproliferative”
as §17, §18, §12
cytotoxicity and the inhibition of cell proliferation. The number of viable cells was determined subsequent to staining with CellTiter-Blue® reagent or methylene blue.
K-562 cells: The influence of test substances on cell proliferation of K-562 was determined via the CellTiter-Blue® assay (PROMEGA). Briefly, viable cells are able to reduce the indicator dye resazurin […]
dye. Thus, formation of resorufin was followed by measuring absorption at 570 nm and subtracting absorption measured at 600 nm. […]
as §16

[3] = parameters: method as in PMID 28097740; settings: preclinical studies ref 12; cited from earlier work

Row | SMILES | MIC [1] | Selectivity index [1] | MIC [2] | CC50 at 72 h (Cytotoxicity assay) | GI50 (HUVEC) | GI50 (K-562) | HMC formation in vivo (in words) [3]
1 | C[C@H]1COC2(CCN(c3nc(=O)c4cc(C(=O)NCCO)cc([N+](=O)[O-])c4s3)CC2)O1 [Compound 7d] | 27.7 µM (≈ 12.5 µg/mL) | > 4 | 111 µM (≈ 50 µg/mL) | > 111 µM | > 111 µM | > 111 µM | 
2 | C[C@H]1COC2(CCN(c3nc(=O)c4cc(C5=NCCO5)cc([N+](=O)[O-])c4s3)CC2)O1 [Compound 7e] | 14.5 µM (≈ 6.27 µg/mL) | > 8 | 28.9 µM (≈ 12.5 µg/mL) | > 116 µM | > 116 µM | > 116 µM | 
3 | CCOC(=O)c1cc([N+](=O)[O-])c2sc(N3CCC4(CC3)OC[C@H](C)O4)nc(=O)c2c1 [Compound 6b] | 1.79 µM (≈ 0.779 µg/mL) | > 64 | 57.4 µM (≈ 25 µg/mL) | > 115 µM | 49.1 ± 1.1 µM | 50.7 ± 6.9 µM | 
4 | CNC(=O)c1cc([N+](=O)[O-])c2sc(N3CCC4(CC3)OC[C@H](C)O4)nc(=O)c2c1 [Compound 7b] | 59.5 µM (≈ 25 µg/mL) | > 2 | 119 µM (≈ 50 µg/mL) | > 119 µM | > 119 µM | > 119 µM | 
5 | C[C@H]1COC2(CCN(c3nc(=O)c4cc(C(N)=O)cc([N+](=O)[O-])c4s3)CC2)O1 [Compound 7a] | 61.5 µM (≈ 25 µg/mL) | > 2 | 123 µM (≈ 50 µg/mL) | > 123 µM | > 123 µM | > 123 µM | 
6 | C[C@H]1COC2(CCN(c3nc(=O)c4cc(C(F)(F)F)cc([N+](=O)[O-])c4s3)CC2)O1 [Compound 1, reference compound] | 0.004 µM (≈ 0.00173 µg/mL) | > 31248 | 0.058 µM (≈ 0.025 µg/mL) | > 116 µM | > 116 µM | > 116 µM | significant hydride-Meisenheimer complex (HMC) formation in vivo
7 | C[C@H]1COC2(CCN(c3nc(=O)c4cc(C(=O)OCCI)cc([N+](=O)[O-])c4s3)CC2)O1 [Compound 6e] | 2.78 µM (≈ 1.56 µg/mL) | 28 | 44.5 µM (≈ 25 µg/mL) | 78.2 ± 1.4 µM | 30.8 ± 0.5 µM | 27.6 ± 0.9 µM | 
8 | C[C@H]1COC2(CCN(c3nc(=O)c4cc(C(=O)OCCO)cc([N+](=O)[O-])c4s3)CC2)O1 [Compound 6d] | 13.8 µM (≈ 6.23 µg/mL) | > 8 | 55.4 µM (≈ 25 µg/mL) | > 111 µM | 73.3 ± 4.2 µM | 17.9 ± 1.1 µM | 
9 | C[C@H]1COC2(CCN(c3nc(=O)c4cc(C(=O)OCCOC(=O)c5cc([N+](=O)[O-])c6sc(N7CCC8(CC7)OC[C@H](C)O8)nc(=O)c6c5)cc([N+](=O)[O-])c4s3)CC2)O1 [Compound 6f] | 14.9 µM (≈ 12.5 µg/mL) | > 4 | 119 µM (≈ 100 µg/mL) | > 59.4 µM | > 59 µM | > 59 µM | 
